Earlier results in patent publication US20250041246A1, “METHODS AND COMPOSITIONS FOR TREATING VITILIGO” (THE REGENTS OF THE UNIVERSITY OF CALIFORNIA, priority 2021, published 2025).

Legend:
[1] = test system: hyperpigmentary disorders; settings: in hyperpigmentary disorders
[2] = test system: existing melanosomes (in melanocytes); settings: due to its effect on existing melanosomes (in melanocytes)

| SMILES | effect on skin pigmentation [1] | effect on skin pigmentation [2] |
| --- | --- | --- |
| CN(C)C(=N)N=C(N)N [metformin] | lighten skin | – |
| [H]/N=C(/N)N/C(=N/[H])NCCc1ccccc1 [phenformin] | – | skin darkening effect |
